Entries after “also recorded” stand apart in the source; their conditions may differ. Non-standard residues stand in square brackets, D forms with d. Residues, ends and D or L forms follow the SMILES beside them. Nle = CCCC[C@H](N)C(=O)O
Key:
p65/p50 complex = test: DHFR PCA for NFkB (p65/p50) translocation in CHO DUKXB11 cells; type: cell-based, mouse and human; settings: 40 micrograms/ml ALLN
Method: Coding regions of NFkB subunits p65 and p50 (corresponding to N-terminal 436 amino acids) were PCR amplified from mouse and human cDNAs, respectively, and ligated in-frame downstream of a 15 amino acid flexible linker (GGGGS)3 (SEQ ID No.30) followed by DHFR fragment F[1,2] or F[3] in pCDNA3.1zeo (Invitrogen). IkBa was subcloned separately into pCDNA3.1. For transient expression of these genes, 8×10e4 DHFR-deficient CHO DXB11 cells were seeded into 12 well plates and transfected 24 hours later with [F1,2]-p65, [F3]-p50, and IkBa at the molar ratio of 1:1:1 for each fusion construct using Fugene (Boehringer Mannheim) according to manufacturer's instructions. For controls, where indicated, empty pCDNA3.1 was used in place of IkBa. A total of 1 microgram of DNA was used per well.
Forty-eight hours post-transfection, complexes of F[1,2]-p65 and [F3]-p50 were detected by fluorescence microscopy. […]
To examine the effect of proteasome inhibition on NFkB nuclear translocation, the transiently transfected cells expressing the DHFR PCA were treated with 40 micrograms/ml ALLN (Calbiochem) for 1 hr prior to TxR-MTX labeling and for the subsequent duration of the experiment. The cells were rinsed with PBS and the subcellular location of NFkB complexes were visualized using a Nikon Eclipse TE2000 fluorescence microscope at excitation and emission wavelengths of 580 nm and 625 nm, respectively. […]

IkBa/p65 complex = test: stable cell line IkBa/p65 YFP PCA, mean fluorescence intensity; type: cell-based
Excerpt: TNF-induced degradation of IkBa, which is a consequence of ubiquitination and proteasomal degradation, frees bound NFkB and results in translocation of that transcription factor into the nucleus. Thus, disassembly of the IkBa-NFkB complex is a key step in NFkB-mediated gene regulation. To visualize regulation of the NFkB pathway at this level, we engineered a stable cell line expressing an IkBa/p65 PCA (FIG. 14). ERK1/MEK1 was used as a control. ERK1 was ligated to the 5′ end of YFP[1] while IkBa and MEK1 were appended to YFP[2] in N-terminal fusions. […]
Cells expressing IkBa-YFP[1]/YFP[2]-p65 or the controls, MEK-YFP[2]/ERK1-YFP[1], were seeded at 20,000 cells/well in black-walled poly-lysine coated 96 well plate (Greiner). […] Fluorescence was visualized and images were acquired using a Discovery-1 automated fluorescence imager (Molecular Devices, Inc.) equipped with excitation and emission filters 470/35 and 535/60, respectively. […]
Images were analyzed using Image J. Total mean fluorescence intensity for all cells was assessed by adding weighted mean fluorescence intensities for the nucleus and cytoplasm for individual cells in the population for a given condition +/− standard error. […] There was no effect of TNF treatment on the fluorescence intensity of the control (MEK/ERK) PCA.

Question: With `CCCC[C@@H](C=O)NC(=O)[C@H](CC(C)C)NC(=O)[C@H](CC(C)C)NC(C)=O` [ALLN] (Ac-Leu-Leu-[Nle]-aldehyde) as the molecule, how does the “effect on TNF-induced cytoplasmic-to-nuclear translocation of NFkB complexes in DHFR PCA” value (p65/p50 complex) read?
Answer: inhibition of the nuclear translocation; also recorded: inhibits

Question: And the “inhibition of the TNF-induced reduction of IkBa/p65 complexes” value (IkBa/p65 complex; ALLN treatment for 4 hr)?
Answer: 98%

Question: And the “effect on TNF-induced reduction in IkBa/p65 signal (in words)” value (IkBa/p65 complex; FIG. 14)?
Answer: blocked
